In the supplement of paper PMC10307832:

Columns and labels:
Experiment in all cases: relative viability (nuclei count vs DMSO), 5 days (fraction); higher = more cells survive
Bortezomib = compound: CC(C)C[C@H](NC(=O)[C@H](Cc1ccccc1)NC(=O)c1cnccn1)B(O)O [Bortezomib]
Procedure, shortened: (§1)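 Lung cancer cell lines in 1536-well plates were exposed by pinning to five library-drug doses (not always all listed) √10 apart, following an overnight hold at 37 °C. MetaXpress counted Hoechst-stained nuclei from 4× images taken after 5 days without medium change. Viability is the median ratio of treated-well to vehicle-well nuclei across plates. Plates required control CV below 25% and at least one doubling.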

[1] = compound: CC1=CC(=NN1)NC2=CC(=NC(=N2)/C=C/C3=CC=CC=C3)N4CCN(CC4)C
Procedure, shortened: as §1

Obatoclax + Luminespib = compound: COC1=CC(c2cc3ccccc3[nH]2)=N/C1=C\c1[nH]c(C)cc1C [Obatoclax] + CCNC(=O)c1noc(-c2cc(C(C)C)c(O)cc2O)c1-c1ccc(CN2CCOCC2)cc1 [Luminespib] (partner 0.01 µM)
Procedure, shortened: (§2)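 Lung cancer cell lines in 1536-well plates were dosed by pin tool the day after seeding, either with one drug alone or with a fixed anchor-drug dose plus five library-drug doses (not always all listed) in √10 steps. After 5 days, cells were fixed and their nuclei stained in one step (final 0.05% Triton X-100, 1% formaldehyde, 1 ug/ml Hoechst), then counted on 4× images. Relative viability is the nuclei count in treated wells divided by that in vehicle wells. Values are medians of duplicate plates.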

Obatoclax + Foretinib = compound: COC1=CC(c2cc3ccccc3[nH]2)=N/C1=C\c1[nH]c(C)cc1C [Obatoclax] + COc1cc2c(Oc3ccc(NC(=O)C4(C(=O)Nc5ccc(F)cc5)CC4)cc3F)ccnc2cc1OCCCN1CCOCC1 [Foretinib] (partner 0.25 µM)
Procedure, shortened: as §2

Question: For NCI-H650, which relative viability (Bortezomib; 0.000632 µM) is on record?
Answer: 0.97

Question: What about the relative viability (Bortezomib; 0.002 µM) of the same cell line?
Answer: 1.03

Question: What about the relative viability (Bortezomib; 0.002 µM, anchor plate) of the same cell line?
Answer: 0.902

Question: And the relative viability (Bortezomib; 0.006325 µM)?
Answer: 0.689

Question: And the relative viability (Bortezomib; 0.02 µM)?
Answer: 0.281

Question: And the relative viability ([1]; 0.08 µM)?
Answer: 0.701

Question: What about the relative viability ([1]; 0.253 µM) of the same cell line?
Answer: 1.15

Question: What about the relative viability ([1]; 0.8 µM) of the same cell line?
Answer: 1.1

Question: What about the relative viability ([1]; 2.53 µM) of the same cell line?
Answer: 0.492

Question: What about the relative viability ([1]; 8 µM) of the same cell line?
Answer: 0.208

Question: What about the relative viability (Obatoclax + Luminespib; first compound 0.01 µM) of the same cell line?
Answer: 0.712

Question: And the relative viability (Obatoclax + Luminespib; first compound 0.03162 µM)?
Answer: 0.802

Question: And the relative viability (Obatoclax + Luminespib; first compound 0.3162 µM)?
Answer: 0.44

Question: And the relative viability (Obatoclax + Luminespib; first compound 1 µM)?
Answer: 0.305

Question: What about the relative viability (Obatoclax + Foretinib; first compound 0.01 µM) of the same cell line?
Answer: 1.01

Question: And the relative viability (Obatoclax + Foretinib; first compound 0.03162 µM)?
Answer: 0.986

Question: And the relative viability (Obatoclax + Foretinib; first compound 0.3162 µM)?
Answer: 0.717

Question: And the relative viability (Obatoclax + Foretinib; first compound 1 µM)?
Answer: 0.38
